The results in this text go back to patent US20050208597A1, “Microarray analysis of post-translational modifications” (The Board of Trustees of the Leland Stanford Junior …, priority 2004, published 2005).

Holding throughout (type): cell-based
Assay [1] concerns Akt (Ser473) phosphorylation. The experiment in a line: RPP microarray, phospho-specific antibody probing of cell lysates. The protocol:
(§1) FIG. 2. Applications of reverse-phase protein microarrays. (A) Kinetics of PLCγ1 (Y783) phosphorylation in Jurkat T cells following stimulation with anti-CD3 (pink triangle), anti-CD28 (green circle), both antibodies (blue squares), or isotype control antibodies (empty squares) over 30 minutes. Left panel: Phosphorylation kinetics unadjusted for total PLCγ1 levels. Middle Panel: Total PLCγ1 levels. Right panel: Ratiometric data on phosphorylation kinetics (phospho-PLCγ1/total PLCγ1). See text for details. (B) Phosphorylation kinetics of four signaling proteins (PLCγ1, Akt, MEK1/2, and p44/42 MAPK) in wildtype Jurkat T cells (black square) and J.gamma1, a mutant Jurkat line deficient in PLCγ1 (empty circle), stimulated with both anti-CD3 and CD28 antibodies. […] Jurkats T cells were stimulated with either anti-CD3 or anti-CD28 antibodies in the presence of one of three kinase inhibitors (see text for details). Lysates were collected after 10 minutes of stimulation, spotted on slides, and probed with four phospho-specific antibodies. Representative spots of p-p44/42 MAPK and p-MEK1/2 are shown for anti-CD3 stimulated cells and p-Akt (Ser473) and p-PDK1 for anti-CD28 treated cells.
(§2) To fabricate the protein microarrays, we used a contact-printing robotic microarrayer to deliver nanoliter (˜6 nl) volumes of whole cell lysates onto nitrocellulose-coated slides. FAST slides (Schleicher and Schuell BioSciences, Dassel, Germany). Depending on the experimental setup, two different formats of FAST slides were used. In experiments where the number of samples was greater than the number of analytes measured, slides with a single pad capable of holding over 2000 lysate spots were used. In our screening experiments where the number of analytes exceeds the number of samples, we used slides carrying eight sectored pads or subarrays for multiplex analysis. Under our current configuration, a maximum of 24 spots can be fitted onto each individual pad (6 mm×6 mm).
(§3) For small-scale experiments, we used a precision 8-pin manual microarrayer system (Microcaster system from Schleicher & Schuell). […] The protein lysates dried within seconds of printing and were tightly bound to the nitrocellulose platform via electrostatic interactions.

In assay [2] the test system is MEK1/2 phosphorylation. The assay is described as above. The protocol:
as §1, §2, §3

For assay [3], the system named is p44/42 MAPK phosphorylation. Described as above. The protocol: as §1, §2, §3
Assay [4] has as its system SLP-76. The experiment in a line: RPP microarray, phosphorylation-state independent antibody. As to conditions: PMA treated vs untreated Jurkat T cells. From the text:
(§4) FIG. 1. Protein microarray performance characteristics and validation. (A) Four purified antigens spotted in triplicate over six 2-fold dilutions starting at 900 pg per spot and probed with their corresponding antibodies. (B) Quantitative comparison between Western immunoblotting and protein microarray for measuring Hsp70 induction in heat-shocked Jurkat T cells. (C) Detection of changes in phosphorylation in signaling proteins in PMA treated vs. untreated Jurkat T cells. Corresponding immunoblots of the same samples are shown on the right. Antibodies specific for p44/42 MAPK, MEK1/2 and Akt are phosphorylation-state dependent. Antibodies for SLP-76 and β-actin are not dependent on phosphorylation.
(§5) To fabricate the protein microarrays, we used a contact-printing robotic microarrayer to deliver nanoliter (˜6 nl) volumes of whole cell lysates onto nitrocellulose-coated slides. […] In experiments where the number of samples was greater than the number of analytes measured, slides with a single pad capable of holding over 2000 lysate spots were used. […]
(§6) For small-scale experiments, we used a precision 8-pin manual microarrayer system (Microcaster system from Schleicher & Schuell). The resulting features measured approximately 500 μm in diameter. […] Bound primary antibodies were detected with a horseradish peroxidase (HRP)-linked secondary antibody. […]

Assay [5] deals with β-actin. The assay is described as above. The conditions noted are these: PMA treated vs untreated Jurkat T cells.
From the text: as §4, §5, §6

In assay [6] the test system is PDK1 phosphorylation. Kind of assay: RPP microarray, phospho-specific antibody probing of cell lysates. The conditions noted are these: Jurkat cells stimulated through CD28 in the presence of the inhibitor; lysates after 10 minutes; one of the 'other 3 kinases' (named). The protocol: as §1, §2, §3
[7] abbreviates: PMA treated vs untreated Jurkat T cells.
Setting [8] is: Jurkat cells stimulated through CD3 in the presence of the inhibitor, lysates after 10 minutes.

Turning to `CCCCCCCCCCCCCC(=O)O[C@@H]1[C@@H](C)[C@@]2(O)[C@@H](C=C(CO)C[C@]3(O)C(=O)C(C)=C[C@@H]23)[C@@H]2C(C)(C)[C@]12OC(C)=O` [PMA, phorbol 12-myristate 13-acetate], the “phosphorylation of Akt/PKB” value in assay [1] (setting [7]) was “not significantly affected”. Further, the “phosphorylation of MEK1/2” value in assay [2] (setting [7]) is “rapid phosphorylation”. Moreover, the “phosphorylation of p44/42 MAPK” value in assay [3] (setting [7]) is recorded as “rapid phosphorylation”. Further, the “abundance of SLP-76” value in assay [4] was “no changes”. The “abundance of β-actin” value in assay [5] is listed as “no changes”.

As to `N#CC(=C(/N)Sc1ccccc1N)/C(C#N)=C(\N)Sc1ccccc1N` [U0126], in assay [1] (Jurkat cells stimulated through CD28 in the presence of the inhibitor, lysates after 10 minutes), the “phosphorylation of Akt (Ser473)” value is given as “had no effect”. Moreover, in assay [2] (setting [8]), the “phosphorylation of MEK1/2” value was “had no effect”. Besides, in assay [6], the “phosphorylation of PDK1” value is “had no effect”. Besides, the “phosphorylation of p44/42 MAPK” value in assay [3] (setting [8]) is recorded as “specifically blocked”.
